Laboratory results taken from ChEMBL document CHEMBL5532756, “Phenylthiazoles with potent & optimum selectivity toward Clostridium difficile” (RSC Med Chem, 2024).
≈ marks a conversion by molar mass, not a printed value.

Key:
Neisseria gonorrhoeae = test: Antimicrobial activity against Neisseria gonorrhoeae 194; format: functional
Staphylococcus aureus = test: Antimicrobial activity against methicillin-resistant Staphylococcus aureus USA300; format: functional
Escherichia coli [1] = test: Antimicrobial activity against Escherichia coli BW25113; format: functional
Escherichia coli [2] = test: Antimicrobial activity against Escherichia coli JW55031 harboring TolC mutant; format: functional
Candida albicans = test: Antimicrobial activity against Candida albicans ATCC 64124; format: functional
Clostridioides difficile [3] = test: Antimicrobial activity against Clostridioides difficile ATCC BAA-1870; format: functional
[4] = Antibacterial activity against Bifidobacterium longum subsp. Longum HM-845; format: functional
Lacticaseibacillus casei = test: Antibacterial activity against Lactobacillus casei ATCC 334; format: functional
[5] = Cytotoxicity against African green monkey Vero cells assessed as cell viability at 0.5 to 64 ug/ml relative to control; format: toxicity, cell-based; conditions: chlorocebus sabaeus, at 0.5 to 64 µg/mL, dose 0.5-64 µg/ml, read-out: Activity
Phocaeicola dorei = test: Antibacterial activity against Bacteroides dorei HM-719; format: functional
Clostridioides difficile [6] = test: Antibacterial activity against Clostridioides difficile I 11; format: functional
Bacteroides fragilis [7] = test: Antibacterial activity against Bacteroides fragilis HM-709; format: functional
Lactobacillus gasseri = test: Antibacterial activity against Lactobacillus gasseri HM-400; format: functional
Clostridioides difficile [8] = test: Antibacterial activity against Clostridioides difficile ATCC 43598; format: functional
Clostridioides difficile [9] = test: Antibacterial activity against Clostridioides difficile I 13; format: functional
HRT-18 cell line = test: Cytotoxicity against human HRT-18 cell line assessed as cell viability upto 64 ug/ml; format: toxicity, cell-based; conditions: dose < 64 µg/ml
Bifidobacterium breve [10] = test: Antibacterial activity against Bifidobacterium breve HM-411; format: functional
Lactobacillus crispatus = test: Antibacterial activity against Lactobacillus crispatus HM-420; format: functional
Bifidobacterium breve [11] = test: Antibacterial activity against Bifidobacterium breve HM-1120; format: functional
Clostridioides difficile [12] = test: Antibacterial activity against Clostridioides difficile P7; format: functional
Bacteroides fragilis [13] = test: Antibacterial activity against Bacteroides fragilis HM-714; format: functional

Cc1nc(-c2ccc3ccccc3c2)sc1-c1ccnc(NCC(=N)N)n1
MIC (Neisseria gonorrhoeae): > 64 µg/mL
MIC (Staphylococcus aureus): > 64 µg/mL
MIC (Escherichia coli [1]): > 64 µg/mL
MIC (Escherichia coli [2]): > 64 µg/mL
MIC (Candida albicans): > 64 µg/mL
MIC (Clostridioides difficile [3]): 32 µg/mL (≈ 85.5 µM)

Cc1nc(-c2ccc3ccccc3c2)sc1-c1ccnc(N2CCC[C@H]2C(N)=O)n1
MIC (Neisseria gonorrhoeae): > 64 µg/mL
MIC (Staphylococcus aureus): > 64 µg/mL
MIC (Escherichia coli [1]): > 64 µg/mL
MIC (Escherichia coli [2]): > 64 µg/mL
MIC (Candida albicans): > 64 µg/mL
MIC (Clostridioides difficile [3]): 64 µg/mL (≈ 154 µM)

Cc1nc(-c2ccc3ccccc3c2)sc1-c1ccnc(-c2ccncc2)n1
MIC (Neisseria gonorrhoeae): > 64 µg/mL
MIC (Staphylococcus aureus): > 64 µg/mL
MIC (Escherichia coli [1]): > 64 µg/mL
MIC (Escherichia coli [2]): > 64 µg/mL
MIC (Candida albicans): > 64 µg/mL
MIC (Clostridioides difficile [3]): > 64 µg/mL

Cc1nc(-c2ccc3ccccc3c2)sc1-c1ccnc(-c2ccccn2)n1
MIC [4]: > 64 µg/mL
MIC (Lacticaseibacillus casei): > 64 µg/mL
viability [5]: 100%
MIC (Neisseria gonorrhoeae): > 64 µg/mL
MIC (Phocaeicola dorei): > 64 µg/mL
MIC (Clostridioides difficile [6]): 0.03 µg/mL (≈ 0.0788 µM)
MIC (Staphylococcus aureus): > 64 µg/mL
MIC (Bacteroides fragilis [7]): > 64 µg/mL
MIC (Lactobacillus gasseri): > 64 µg/mL
MIC (Escherichia coli [1]): > 64 µg/mL
MIC (Clostridioides difficile [8]): 0.125 µg/mL (≈ 0.329 µM)
MIC (Clostridioides difficile [9]): 0.06 µg/mL (≈ 0.158 µM)
Activity (HRT-18 cell line): Non-Toxic
MIC (Escherichia coli [2]): > 64 µg/mL
MIC (Bifidobacterium breve [10]): > 64 µg/mL
MIC (Lactobacillus crispatus): > 64 µg/mL
MIC (Bifidobacterium breve [11]): > 64 µg/mL
MIC (Candida albicans): > 64 µg/mL
MIC (Clostridioides difficile [3]): 0.03 µg/mL (≈ 0.0788 µM)
MIC (Clostridioides difficile [12]): 0.125 µg/mL (≈ 0.329 µM)
MIC (Bacteroides fragilis [13]): > 64 µg/mL

Cc1nc(-c2ccc3ccccc3c2)sc1-c1ccnc(N2CC[C@H](N(C)C)C2)n1
MIC (Neisseria gonorrhoeae): > 64 µg/mL
MIC (Staphylococcus aureus): 32 µg/mL (≈ 77 µM)
MIC (Escherichia coli [1]): > 64 µg/mL
MIC (Escherichia coli [2]): > 64 µg/mL
MIC (Candida albicans): 32 µg/mL (≈ 77 µM)
MIC (Clostridioides difficile [3]): 32 µg/mL (≈ 77 µM)

Cc1nc(-c2ccc3ccccc3c2)sc1-c1ccnc(N2CCCCC2CN)n1 (centres undefined)
MIC (Neisseria gonorrhoeae): > 64 µg/mL
MIC (Staphylococcus aureus): > 64 µg/mL
MIC (Escherichia coli [1]): > 64 µg/mL
MIC (Escherichia coli [2]): > 64 µg/mL
MIC (Candida albicans): 16 µg/mL (≈ 38.5 µM)
MIC (Clostridioides difficile [3]): 64 µg/mL (≈ 154 µM)

Cc1nc(-c2ccc3ccccc3c2)sc1-c1ccnc(-c2cccnc2)n1
MIC (Neisseria gonorrhoeae): > 64 µg/mL
MIC (Staphylococcus aureus): > 64 µg/mL
MIC (Escherichia coli [1]): > 64 µg/mL
MIC (Escherichia coli [2]): > 64 µg/mL
MIC (Candida albicans): > 64 µg/mL
MIC (Clostridioides difficile [3]): > 64 µg/mL

Cc1nc(-c2ccc3ccccc3c2)sc1-c1ccnc(NCCN(C)C)n1
MIC (Neisseria gonorrhoeae): > 64 µg/mL
MIC (Staphylococcus aureus): 16 µg/mL (≈ 41.1 µM)
MIC (Escherichia coli [1]): > 64 µg/mL
MIC (Escherichia coli [2]): 16 µg/mL (≈ 41.1 µM)
MIC (Candida albicans): 16 µg/mL (≈ 41.1 µM)
MIC (Clostridioides difficile [3]): 16 µg/mL (≈ 41.1 µM)

Cc1nc(-c2ccc3ccccc3c2)sc1-c1ccnc(NCC(O)CO)n1 (racemic)
MIC (Neisseria gonorrhoeae): 64 µg/mL (≈ 163 µM)
MIC (Staphylococcus aureus): > 64 µg/mL
MIC (Escherichia coli [1]): > 64 µg/mL
MIC (Escherichia coli [2]): > 64 µg/mL
MIC (Candida albicans): > 64 µg/mL
MIC (Clostridioides difficile [3]): 8 µg/mL (≈ 20.4 µM)

Cc1nc(-c2ccc3ccccc3c2)sc1-c1ccnc(N[C@@H]2CCCC[C@@H]2N)n1 (relative stereo)
MIC (Neisseria gonorrhoeae): 32 µg/mL (≈ 77 µM)
MIC (Staphylococcus aureus): 4 µg/mL (≈ 9.63 µM)
MIC (Escherichia coli [1]): > 64 µg/mL
MIC (Escherichia coli [2]): 8 µg/mL (≈ 19.3 µM)
MIC (Candida albicans): 8 µg/mL (≈ 19.3 µM)
MIC (Clostridioides difficile [3]): 8 µg/mL (≈ 19.3 µM)

Cc1nc(-c2ccc3ccccc3c2)sc1-c1ccnc(N[C@@H]2CCCC[C@H]2N)n1 (relative stereo)
MIC (Neisseria gonorrhoeae): 64 µg/mL (≈ 154 µM)
MIC (Staphylococcus aureus): 4 µg/mL (≈ 9.63 µM)
MIC (Escherichia coli [1]): > 64 µg/mL
MIC (Escherichia coli [2]): 8 µg/mL (≈ 19.3 µM)
MIC (Candida albicans): 8 µg/mL (≈ 19.3 µM)
MIC (Clostridioides difficile [3]): 16 µg/mL (≈ 38.5 µM)

Cc1ncc([N+](=O)[O-])n1CCO [METRONIDAZOLE]
MIC [4]: 0.5 µg/mL (≈ 2.92 µM)
MIC (Lacticaseibacillus casei): > 8 µg/mL
MIC (Phocaeicola dorei): 0.25 µg/mL (≈ 1.46 µM)
MIC (Clostridioides difficile [6]): 0.5 µg/mL (≈ 2.92 µM)
MIC (Bacteroides fragilis [7]): 1 µg/mL (≈ 5.84 µM)
MIC (Lactobacillus gasseri): > 8 µg/mL
MIC (Clostridioides difficile [8]): 0.25 µg/mL (≈ 1.46 µM)
MIC (Clostridioides difficile [9]): 0.25 µg/mL (≈ 1.46 µM)
MIC (Bifidobacterium breve [10]): > 8 µg/mL
MIC (Lactobacillus crispatus): > 8 µg/mL
MIC (Bifidobacterium breve [11]): > 8 µg/mL
MIC (Clostridioides difficile [3]): 0.25 µg/mL (≈ 1.46 µM)
MIC (Clostridioides difficile [12]): 0.25 µg/mL (≈ 1.46 µM)
MIC (Bacteroides fragilis [13]): 1 µg/mL (≈ 5.84 µM)

CN[C@H](CC(C)C)C(=O)N[C@H]1C(=O)N[C@@H](CC(N)=O)C(=O)N[C@H]2C(=O)N[C@H]3C(=O)N[C@H](C(=O)N[C@H](C(=O)O)c4cc(O)cc(O)c4-c4cc3ccc4O)[C@H](O)c3ccc(c(Cl)c3)Oc3cc2cc(c3O[C@@H]2O[C@H](CO)[C@@H](O)[C@H](O)[C@H]2O[C@H]2C[C@](C)(N)[C@H](O)[C@H](C)O2)Oc2ccc(cc2Cl)[C@H]1O [VANCOMYCIN]
MIC [4]: 0.125 µg/mL (≈ 0.0863 µM)
MIC (Lacticaseibacillus casei): > 8 µg/mL
MIC (Phocaeicola dorei): 8 µg/mL (≈ 5.52 µM)
MIC (Clostridioides difficile [6]): 0.5 µg/mL (≈ 0.345 µM)
MIC (Bacteroides fragilis [7]): 8 µg/mL (≈ 5.52 µM)
MIC (Lactobacillus gasseri): > 8 µg/mL
MIC (Clostridioides difficile [8]): 0.5 µg/mL (≈ 0.345 µM)
MIC (Clostridioides difficile [9]): 0.5 µg/mL (≈ 0.345 µM)
MIC (Bifidobacterium breve [10]): 0.25 µg/mL (≈ 0.173 µM)
MIC (Lactobacillus crispatus): 0.5 µg/mL (≈ 0.345 µM)
MIC (Bifidobacterium breve [11]): 0.25 µg/mL (≈ 0.173 µM)
MIC (Clostridioides difficile [3]): 1 µg/mL (≈ 0.69 µM)
MIC (Clostridioides difficile [12]): 0.5 µg/mL (≈ 0.345 µM)
MIC (Bacteroides fragilis [13]): 8 µg/mL (≈ 5.52 µM)
